Source: ChEMBL document CHEMBL3414522, “Design, synthesis, and biological evaluation of novel matrix metalloproteinase inhibitors as potent antihemorrhagic agents: from hit identification to an optimized lead” (J Med Chem, 2015)

How the values were obtained:
in vitro [1] = settings: mouse, liver microsomes
in vitro [2] = settings: rat, liver microsomes
in vitro [3] = settings: human, liver microsomes
[4] = Apparent permeability from apical to basolateral side in human Caco2 cells at 2 uM after 120 mins by LC-MS/MS analysis; assay type: ADME, cell-based; settings: caco-2, 2 h

## CNC(=O)c1ccc(Oc2ccc(S(=O)(=O)C3(C(=O)NO)CCC4(CCNCC4)C3)cc2)cc1 (centres undefined)
In vitro [1]
  remaining at 20 min, 1 µM: 97.5%
In vitro [2]
  remaining at 20 min, 1 µM: 99.8%
In vitro [3]
  remaining at 20 min, 1 µM: 91.1%

## CNC(=O)c1ccc(Oc2ccc(S(=O)(=O)[C@]3(C(=O)NO)CCC4(CCNCC4)C3)cc2)cc1
In vitro [1]
  remaining at 20 min, 1 µM: 98%
In vitro [2]
  remaining at 20 min, 1 µM: 98.1%
[4]
  Papp: 0.00016 ×10⁻⁶ cm/s
In vitro [3]
  remaining at 20 min, 1 µM: 93.5%

## O=C(NO)C1(S(=O)(=O)c2ccc(Oc3ccc(OC(F)(F)F)cc3)cc2)CCC2(CCNCC2)C1 (centres undefined)
In vitro [1]
  remaining at 20 min, 1 µM: 87.2%
In vitro [2]
  remaining at 20 min, 1 µM: 95.6%
In vitro [3]
  remaining at 20 min, 1 µM: 92.1%

## CNC(=O)c1ccc(Oc2ccc(S(=O)(=O)[C@@]3(C(=O)NO)CCC4(CCNCC4)C3)cc2)cc1
In vitro [1]
  remaining at 20 min, 1 µM: 89.6%
In vitro [2]
  remaining at 20 min, 1 µM: 97.4%
[4]
  Papp: 0.00059 ×10⁻⁶ cm/s
In vitro [3]
  remaining at 20 min, 1 µM: 97%
